Experimental findings from patent US9854822B2, “Process for increasing the yield of Lactococcus lactis subsp, lactis and/or Lactococcus lactis subsp. cremoris bacteria cultures during aerobic fermentation” (CHR. HANSEN A/S, priority 2005, dated 2018) are described below.

The test system of test [1] is Streptococcus thermophilus culture CHQ-18. As to the kind of experiment: Yield of Streptococcus thermophilus fermentation at standard anaerobic high-OD conditions. The test is classed as cell-based. The settings on record: 0.2% w/w added, 3 L tank, 40° C., pH 6.0.
Experimental: 0.2% w/w inosine is approximately 7 mM inosine.
This experiment was performed to investigate the effect of adding extra purine containing compounds to an already enriched and optimized media to be used for anaerobic fermentation at high OD-conditions.
The present experiment was performed using the commercially available Streptococcus thermophilus culture CHQ-18, which is available from Chr. Hansen A/S, Hoersholm, Denmark.
The cultures were cultured in a rich medium based on complex medium components, BioSpringer yeast extract 207, Arla skim milk powder (Milex 240), and lactose.
The fermentation was performed in a 3 L agitated fermentation tank at 40° C. using 0.1% (w/w) of the culture mentioned above as inoculum. The pH was maintained at 6.0 by addition of 13.4 N NH4OH. Anaerobic conditions were ensured by flushing with nitrogen in head space (1.5 l/min). Agitation was 300 rpm.
The yields of the fermentations were specified by the obtained biomass measured as the Optical Density at 600 nm (OD600) of unconcentrated samples sampled during the fermentation.
For test [2], the system named is L. lactis subsp. lactis CHCC2862. As to the kind of experiment: Proteomics (2D protein gels) for detection of exogenous purines in the medium. The settings on record: 0.2% inosine, SA medium with 1% glucose. It counts as cell-based, Lactococcus lactis subsp. lactis. Here is the method: To set up a specific method for detection of the presence/absence of exogenous purines in the medium we inoculated L. lactis subsp. lactis CHCC2862 into defined SA medium with 1% glucose. This medium is devoid of nucleo compounds (Jensen & Hammer 1993). Cultures were set up at 30° C. with and without 0.2% inosine and incubated overnight. Exponentially growing cells were then inoculated into fresh medium at an OD600 of around 0.1. At OD 0.8 (exponential growth) and in stationary phase cells were harvested and 2D protein gels were produced.
In general around 3-400 protein spots were detectable on the gels with the pH range 4-7. For OD 0.8 there were less than 10 spots that were present from the culture without inosine, but absent (or very weak) from the culture with inosine. […] Four of the strongest spots present only on the gel produced from the culture without purines were subjected to in-gel digestion and mass spectrometry identification. The proteins were identified as: purH (bifunctional purine biosynthesis protein), purM (phosphoribosylaminoimidazole synthase), yphF (phosphoribosylformylglycinamidine synthase PurS), and fhs (formyltetrahydrofolate synthetase). […]
Identification of proteins. The identity of proteins in chosen spots was determined by in-gel digestion and analysis of peptide profile and amino acid content using mass spectrometry. […]

In test [3] the test system is R 604 culture (Lactococcus lactis). Briefly: Yield of Lactococcus lactis fermentation at standard anaerobic high-OD conditions. The test is classed as cell-based. Here is the method:
To illustrate the effect of adding extra purine containing compounds to an already enriched and optimized media two different types of industrial scale fermentation were compared, one with and one without 0.3% w/w inosine added.
The present experiment was performed using the commercially available R 604 culture, which is available from Chr. Hansen A/S, Hoersholm, Denmark (catalogue no. 200113).
The cultures were cultured in a medium having the following composition: Casein hydrolysate (Oxoid, Basingstoke, UK, Product Code L41), 30 g/l; Primatone RL (Quest, Naarden, The Netherlands, Product Code 5X59051), 30 g/l; soya peptone (Oxoid, Basingstoke, UK, Product Code L44), 30 g/l; yeast extract (Oxoid, Basingstoke, UK, Product Code L21), 15 g/l; MgSO4, 1.5 g/l; Na-ascorbate, 3 g/l; and lactose 50 g/l.
The medium was sterilized by UHT-treatment (143° C. for 8 sec.).
The fermentation was performed in a 550 L industrial fermentation tank without aeration at 30° C. using 1% (w/w) of the culture mentioned above as inoculum. At high OD conditions the fermentation is essentially anaerobic. The cultures were allowed to acidify to pH 6.0. The pH was subsequently maintained at 6.0 by controlled addition of 13.4 N NH4OH.
When no further base consumption was detected, the respective culture was cooled down to about 10° C.
Following cooling, the bacteria in culture media were concentrated 6-18 times by centrifugation and subsequently frozen as pellets in liquid nitrogen at one atmosphere of pressure to produce a so-called frozen Direct Vat Set culture (F-DVS). The F-DVS pellets were stored at −50° C. until further analysis
The yields of the fermentations were specified in two different ways: • 1) by the obtained biomass measured as the Optical Density at 600 nm (OD600), or • 2) by kg of F-DVS culture pr. 100 L fermentation medium wherein the F-DVS culture have an “acidification activity” of 4.8-5.1 according to the Pearce test described in Example 2: Analytical Procedure QAm-043.

The mark [4] stands for this setting: 0.3% w/w inosine, 550 L tank without aeration, 30° C., pH 6.0.

Consider `OC[C@H]1O[C@@H](n2cnc3c(O)ncnc32)[C@H](O)[C@@H]1O` [inosine], for which the “Effect of enhancing agent on yield (biomass as OD600, FIG. 1)” value in test [1] is given as “did not result in increased yields”. Also, in test [2] (30° C., OD 0.8 (exponential growth), gels pH 4-7), the “Protein spots present from the culture without inosine, but absent (or very weak) from the culture with inosine” value was “less than 10 spots”. For the same compound, the “Absence/presence pattern of purine de novo synthesis protein spots” value in test [2] (cells in stationary phase) is listed as “a similar absence/presence pattern was obtained”. Also, the “Effect of enhancing agent on yield” value in test [3] (0.3% w/w inosine added to the anaerobic culture medium before the start of the fermentation) is given as “did not result in increased yields”. In addition, in test [3] (setting [4]), the “Yield according to Pearce” value came to 4.98 and the “Yield as OD600” value was found to be 25.2.
